These results are taken from US9745320B2, “Five-and-six-membered heterocyclic compound, and preparation method, pharmaceutical composition and use thereof” (SHANGHAI CHEMEXPLORER CO., LTD., priority 2013, dated 2017).

Structures are written as SMILES. Where only a bound is given, the exact number is not on record here.

Broadly, the IC50 is the midpoint of a concentration-inhibition curve.

Holding throughout (assay type): biochemical
One test deals with T1, JAK3 (Homo sapiens, UniProt P52333).
T1 sequence (P52333 1-1124): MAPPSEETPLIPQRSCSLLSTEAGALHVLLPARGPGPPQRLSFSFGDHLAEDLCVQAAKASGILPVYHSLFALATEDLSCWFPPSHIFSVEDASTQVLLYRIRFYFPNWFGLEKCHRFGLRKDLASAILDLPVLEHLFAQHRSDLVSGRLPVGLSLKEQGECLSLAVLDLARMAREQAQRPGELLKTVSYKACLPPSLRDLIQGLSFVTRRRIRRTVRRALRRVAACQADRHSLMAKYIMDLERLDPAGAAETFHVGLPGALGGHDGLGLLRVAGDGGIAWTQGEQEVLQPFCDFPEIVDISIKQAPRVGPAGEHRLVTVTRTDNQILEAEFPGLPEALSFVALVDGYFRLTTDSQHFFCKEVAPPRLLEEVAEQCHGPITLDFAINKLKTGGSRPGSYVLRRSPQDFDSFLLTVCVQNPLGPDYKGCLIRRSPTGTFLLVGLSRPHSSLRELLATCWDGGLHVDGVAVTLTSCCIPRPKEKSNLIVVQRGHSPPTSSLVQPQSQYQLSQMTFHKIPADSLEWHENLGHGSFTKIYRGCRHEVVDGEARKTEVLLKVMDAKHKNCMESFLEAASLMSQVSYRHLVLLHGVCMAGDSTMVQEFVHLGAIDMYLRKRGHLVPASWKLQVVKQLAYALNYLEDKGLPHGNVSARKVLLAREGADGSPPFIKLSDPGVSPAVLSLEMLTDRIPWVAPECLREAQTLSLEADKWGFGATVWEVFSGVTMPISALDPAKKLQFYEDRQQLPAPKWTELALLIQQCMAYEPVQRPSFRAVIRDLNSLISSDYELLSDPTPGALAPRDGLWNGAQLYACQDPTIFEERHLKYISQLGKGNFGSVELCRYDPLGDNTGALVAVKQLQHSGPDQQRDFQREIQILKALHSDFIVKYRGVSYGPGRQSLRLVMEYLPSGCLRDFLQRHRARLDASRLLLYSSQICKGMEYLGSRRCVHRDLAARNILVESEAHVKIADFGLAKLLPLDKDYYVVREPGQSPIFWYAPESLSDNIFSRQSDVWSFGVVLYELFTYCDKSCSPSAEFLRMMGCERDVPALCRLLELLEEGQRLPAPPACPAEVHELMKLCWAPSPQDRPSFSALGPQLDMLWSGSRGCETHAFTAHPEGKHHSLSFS
Nature of the test: JAK 3 enzymatic inhibitory activity IC50 assay (Caliper conversion rate). The note with it: Km ATP, 28° C., 1 hour; read-out: JAK 3 enzymatic inhibitory activity IC50. As for the experimental part:
(§1) Biological effect: intracytoplasmic JAK 1,2,3 enzymatic inhibitory activity IC50 assay
(§2) JAK1 buffer solution: 25 mM HEPES, pH 7.5, 0.01% Brij-35, 0.01 M Triton. JAK2,3 buffer solution: 50 mM HEPES, pH 7.5, 0.0015% Brij-35.
(§3) 2. Compound was formulated in 100% DMSO in a concentration gradient, deposited to a 384-well plate with a final concentration of 2% of DMSO.
3. JAK2,3 enzymes were diluted to having an optimum concentration with the following buffer: 50 mM HEPES, pH 7.5, 0.0015% Brij-35, 2 mM DTT. JAK1 enzyme was diluted to having an optimum concentration with the following buffer: 25 mM HEPES, pH 7.5, 0.01% Brij-35, 2 mM DTT, 0.01M Triton. Then they were transferred to a 384-well plate and incubated with the compound for a certain time. […]
(§4) 5. Read the conversion rate by Caliper Reader, and the inhibition rate are calculated according to the average of two tests.

A further test has as its target JAK2 (Homo sapiens, UniProt O60674). Nature of the test: JAK 2 enzymatic inhibitory activity IC50 assay (Caliper conversion rate). As to conditions: Km ATP, 28° C., 1 hour. Here is the method:
as §1, §2, §3
(§5) 3. JAK2,3 enzymes were diluted to having an optimum concentration with the following buffer: 50 mM HEPES, pH 7.5, 0.0015% Brij-35, 2 mM DTT. JAK1 enzyme was diluted to having an optimum concentration with the following buffer: 25 mM HEPES, pH 7.5, 0.01% Brij-35, 2 mM DTT, 0.01M Triton. Then they were transferred to a 384-well plate and incubated with the compound for a certain time.
(§6) 4. JAK2,3 substrate was diluted to having an optimum concentration with the following buffer: 50 mM HEPES, pH 7.5, 0.0015% Brij-35, 10 mM MgCl2, Km adenosine triphosphate. JAK1 substrate was diluted to having an optimum concentration with the following buffer: 25 mM HEPES, pH 7.5, 0.01% Brij-35, 10 mM MgCl2, 0.01 M Triton. Km adenosine triphosphate was added into 384-well plates to initiate reactions, and the reaction were carried out at 28° C. for 1 hour.
as §4

The next test addresses JAK1 (Homo sapiens, UniProt P23458). Put plainly: JAK 1 enzymatic inhibitory activity IC50 assay (Caliper conversion rate). As to conditions: Km ATP, 28° C., 1 hour. As for the experimental part: as §1, §2, §3, §5, §6, §4

Chain of JAK2 (O60674 whole entry, species assumed): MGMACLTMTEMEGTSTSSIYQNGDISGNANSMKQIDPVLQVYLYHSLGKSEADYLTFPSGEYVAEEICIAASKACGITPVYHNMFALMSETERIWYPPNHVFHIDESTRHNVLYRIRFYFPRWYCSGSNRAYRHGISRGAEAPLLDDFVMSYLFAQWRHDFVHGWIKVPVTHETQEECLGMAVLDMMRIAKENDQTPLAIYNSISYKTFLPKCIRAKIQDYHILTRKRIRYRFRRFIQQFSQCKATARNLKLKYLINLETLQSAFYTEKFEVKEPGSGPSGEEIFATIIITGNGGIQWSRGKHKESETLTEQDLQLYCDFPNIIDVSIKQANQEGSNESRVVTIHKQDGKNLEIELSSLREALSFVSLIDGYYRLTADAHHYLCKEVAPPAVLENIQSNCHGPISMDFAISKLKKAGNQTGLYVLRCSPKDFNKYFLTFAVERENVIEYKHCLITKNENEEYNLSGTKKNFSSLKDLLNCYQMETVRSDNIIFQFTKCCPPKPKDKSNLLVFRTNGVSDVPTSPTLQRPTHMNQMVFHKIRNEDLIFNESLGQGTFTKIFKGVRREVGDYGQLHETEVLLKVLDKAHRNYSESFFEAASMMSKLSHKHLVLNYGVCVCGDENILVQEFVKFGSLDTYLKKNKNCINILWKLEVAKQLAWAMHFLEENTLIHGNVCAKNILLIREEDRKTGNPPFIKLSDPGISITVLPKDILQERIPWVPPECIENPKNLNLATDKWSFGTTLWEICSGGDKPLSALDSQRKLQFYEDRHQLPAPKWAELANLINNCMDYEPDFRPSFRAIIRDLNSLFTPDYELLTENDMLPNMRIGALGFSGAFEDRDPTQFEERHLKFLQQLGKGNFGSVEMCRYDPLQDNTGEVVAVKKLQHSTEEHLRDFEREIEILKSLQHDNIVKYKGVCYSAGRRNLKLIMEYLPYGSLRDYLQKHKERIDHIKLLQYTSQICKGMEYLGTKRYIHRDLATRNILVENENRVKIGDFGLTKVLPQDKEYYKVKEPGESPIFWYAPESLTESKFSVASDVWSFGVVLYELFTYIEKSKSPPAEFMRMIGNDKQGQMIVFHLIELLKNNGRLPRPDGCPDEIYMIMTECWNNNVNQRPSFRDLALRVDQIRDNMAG
Chain of JAK1 (P23458 whole entry, species assumed): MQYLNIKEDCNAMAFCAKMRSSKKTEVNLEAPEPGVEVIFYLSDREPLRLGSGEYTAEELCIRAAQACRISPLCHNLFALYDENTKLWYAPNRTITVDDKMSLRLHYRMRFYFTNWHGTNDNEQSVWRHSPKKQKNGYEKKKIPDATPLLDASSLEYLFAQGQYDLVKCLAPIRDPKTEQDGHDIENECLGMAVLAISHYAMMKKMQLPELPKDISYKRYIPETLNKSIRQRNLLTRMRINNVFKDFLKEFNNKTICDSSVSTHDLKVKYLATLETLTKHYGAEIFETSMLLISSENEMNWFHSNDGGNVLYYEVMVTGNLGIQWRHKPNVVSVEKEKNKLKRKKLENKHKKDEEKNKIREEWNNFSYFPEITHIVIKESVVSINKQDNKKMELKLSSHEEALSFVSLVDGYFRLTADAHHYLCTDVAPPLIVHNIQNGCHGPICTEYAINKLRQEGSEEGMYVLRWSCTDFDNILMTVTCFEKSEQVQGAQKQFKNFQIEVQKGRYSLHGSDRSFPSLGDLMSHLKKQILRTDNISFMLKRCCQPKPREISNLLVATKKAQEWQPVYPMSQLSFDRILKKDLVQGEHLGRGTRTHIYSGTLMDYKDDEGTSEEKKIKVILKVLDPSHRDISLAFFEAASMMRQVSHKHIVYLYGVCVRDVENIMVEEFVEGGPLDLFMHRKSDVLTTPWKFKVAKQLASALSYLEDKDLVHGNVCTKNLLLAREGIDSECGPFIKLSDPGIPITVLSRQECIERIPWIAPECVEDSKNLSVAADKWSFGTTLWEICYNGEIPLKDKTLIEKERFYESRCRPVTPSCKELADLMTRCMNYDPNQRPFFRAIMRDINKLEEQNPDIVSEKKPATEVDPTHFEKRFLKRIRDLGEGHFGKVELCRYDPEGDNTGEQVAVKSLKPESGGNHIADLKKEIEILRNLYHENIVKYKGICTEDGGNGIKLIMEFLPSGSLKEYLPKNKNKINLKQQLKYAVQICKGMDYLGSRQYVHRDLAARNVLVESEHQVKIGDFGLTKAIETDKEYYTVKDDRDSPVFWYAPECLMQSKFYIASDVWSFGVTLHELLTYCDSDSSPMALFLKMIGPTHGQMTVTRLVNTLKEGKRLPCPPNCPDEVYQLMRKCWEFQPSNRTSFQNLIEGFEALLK

Regarding `CC(C)(C)NS(=O)(=O)c1ccc(-c2nc(Nc3ccc(N4CCOCC4)cc3)nc3ccsc23)cc1` [Compound T-17, N-(Tert-butyl)-4-(2-((4-morpholinophenyl)amino)thieno[3,2-d]pyrimidin-4-yl)benzenesulfonamide], the IC50 on JAK3, at JAK2 and on JAK1 was above 1000 nM throughout.

Turning to `CCS(=O)(=O)N1CC(CC#N)(n2cc(-c3nc(Nc4ccc(S(C)(=O)=O)cc4)nc4sccc34)cn2)C1` [Compound T-18, 2-(1-(Ethylsulfonyl)-3-(4-(2-((4-(methylsulfonyl)phenyl)amino)thieno[2,3-d]pyrimidin-4-yl)-1H-pyrazol-1-yl)azetidin-3-yl)acetonitrile], the results for the half-inhibitory concentration (IC50) on JAK3, against JAK2 and on JAK1 were 500 to 1000 nM, below 50 nM and 50 to 500 nM, respectively.

`CCS(=O)(=O)N1CC(CC#N)(n2cc(-c3nc(Nc4ccc(C#N)cc4)nc4ccsc34)cn2)C1` [Compound T-19, 4-((4-(1-(3-(Cyanomethyl)-1-(ethylsulfonyl)azetidin-3-yl)-1H-pyrazol-4-yl)thieno[3,2-d]pyrimidin-2-yl)amino)benzonitrile]: the results for the IC50 at JAK3, at JAK2 and against JAK1 were 50 to 500 nM, below 50 nM and 50 to 500 nM, respectively.

Regarding `N#CCC1(n2cc(-c3nc(Nc4ccccc4)nc4ccsc34)cn2)COC1` [Compound T-20, 2-(3-(4-(2-(Phenylamino)thieno[3,2-d]pyrimidin-4-yl)-1H-pyrazol-1-yl)oxetan-3-yl)acetonitrile], the IC50 is 500 to 1000 nM at JAK3, below 50 nM against JAK2 and 50 to 500 nM on JAK1.

Take `CCS(=O)(=O)N1CC(CC#N)(n2cc(-c3nc(Nc4ccncc4)nc4ccsc34)cn2)C1` [Compound T-21, 2-(1-(Ethylsulfonyl)-3-(4-(2-(pyridin-4-ylamino)thieno[3,2-d]pyrimidin-4-yl)-1H-pyrazol-1-yl)azetidin-3-yl)acetonitrile]: the IC50 at JAK3 was 50 to 500 nM; at JAK2 it was below 50 nM; on JAK1, 50 to 500 nM.

Consider `CCS(=O)(=O)N1CC(CC#N)(n2cc(-c3nc(Nc4ccc(C#N)nc4)nc4ccsc34)cn2)C1` [Compound T-22, 5-((4-(1-(3-(Cyanomethyl)-1-(ethylsulfonyl)azetidin-3-yl)-1H-pyrazol-4-yl)thieno[3,2-d]pyrimidin-2-yl)amino)picolinonitrile], for which the IC50 on JAK3 is above 1000 nM; at JAK2, below 50 nM; on JAK1, above 1000 nM.

Regarding `CCS(=O)(=O)N1CC(CC#N)(n2cc(-c3nc(Nc4ccccc4)nc4cc(C)sc34)cn2)C1` [Compound T-23, 2-(1-(Ethylsulfonyl)-3-(4-(6-methyl-2-(phenylamino)thieno[3,2-d]pyrimidin-4-yl)-1H-pyrazol-1-yl)azetidin-3-yl)acetonitrile], the IC50 at JAK3, at JAK2 and on JAK1 was above 1000 nM each time.

As for `CCS(=O)(=O)N1CC(CC#N)(n2cc(-c3nc(Nc4ccn(C)n4)nc4ccsc34)cn2)C1` [Compound T-25, 2-(1-(Ethylsulfonyl)-3-(4-(2-((1-methyl-1H-pyrazol-3-yl)amino)thieno[3,2-d]pyrimidin-4-yl)-1H-pyrazol-1-yl)azetidin-3-yl)acetonitrile], the IC50 is 50 to 500 nM at JAK3, below 50 nM against JAK2 and below 50 nM against JAK1.

In the case of `CCS(=O)(=O)N1CC(CC#N)(n2cc(-c3nc(Nc4cccnc4)nc4ccsc34)cn2)C1` [Compound T-26, 2-(1-(Ethylsulfonyl)-3-(4-(2-(pyridin-3-ylamino)thieno[3,2-d]pyrimidin-4-yl)-1-pyrazol-1-yl)azetidin-3-yl)acetonitrile], the IC50 on JAK3 is 50 to 500 nM; on JAK2 it was below 50 nM; against JAK1 it was below 50 nM.

In the case of `CCS(=O)(=O)N1CC(CC#N)(n2cc(-c3nc(NC4CC4)nc4ccsc34)cn2)C1` [Compound T-28, 2-(3-(4-(2-(Cyclopropylamino)thieno[3,2-d]pyrimidin-4-yl)-1H-pyrazol-1-yl)-1-(ethylsulfonyl)azetidin-3-yl)acetonitrile], the IC50 at JAK3, at JAK2 and at JAK1 was above 1000 nM each time.
